Reference: patent US7872045B2, “Combination therapy for glaucoma treatment” (Allergan, Inc., priority 2001, dated 2011)

Assays:
[1] = target: T1, human EP4 receptor (hEP4) (Homo sapiens, UniProt P35408); experiment: Radioligand binding competition vs [3H]PGE2, human recombinant EP4 receptor; details: [3H]PGE2 competition, plasma membranes of HEK-293 stable transfectants, 60 min 25° C.
T1 construct: expressed in transfected cells; plasma membrane fraction
Experimental: (§1) Human Recombinant EP1, EP2, EP4, and FP Receptors: Stable Transfectants
(§2) HEK-293 cells stably expressing the human or feline FP receptor, or EP1, EP2, EP3, or EP4 receptors were washed with TME buffer, scraped from the bottom of the flasks, and homogenized for 30 sec using a Brinkman PT 10/35 polytron. TME buffer was added to achieve a final 40 ml volume in the centrifuge tubes (the composition of TME is […]; ION HCl is added to achieve a pH of 7.4).
(§3) The cell homogenate was centrifuged at 19000 r.p.m. for 20 min at 4° C. using a Beckman Ti-60 rotor. The resultant pellet was resuspended in TME buffer to give a final 1 mg/ml protein concentration, as determined by Biorad assay. Radioligand binding competition assays vs. [^3H-]17 -phenyl PGF2α (5 nM) were performed in a 100 μl volume for 60 min. Binding reactions were started by adding plasma membrane fraction. The reaction was terminated by the addition of 4 ml ice-cold TRIS-HCl buffer and rapid filtration through glass fiber GF/B filters using a Brandel cell harvester. The filters were washed 3 times with ice-cold buffer and oven dried for one hour. Non-specific binding was determined with 10 uM unlabeled 17 -phenyl PGF2α.
(§4) [^3H-] PGE2 (5 nM; specific activity 180 Ci mmol) was used as the radioligand for EP receptors. Binding studies employing EP1, EP2, EP3, EP4 were performed in duplicate in at least three separate experiments. A 200 μl assay volume was used. Incubations were for 60 min at 25° C. and were terminated by the addition of 4 ml of ice-cold 50 mM TRIS-HCl, followed by rapid filtration through Whatman GF/B filters and three additional 4 ml washes in a cell harvester (Brandel). Non-specific binding determined with 10^−5M of unlabeled PGE2,.
(§5) Plasmids encoding the human EP1, EP2, EP4, and FP receptors were prepared by cloning the respective coding sequences into the eukaryotic expression vector pCEP4 (Invitrogen). The pCEP4 vector contains an Epstein Barr virus (EBV) origin of replication, which permits episomal replication in primate cell lines expressing EBV nuclear antigen (EBNA-1). Similarly, competitive experiments were caried out using [3H]17-phenylPGF2α at 5 nM in the presence of test ligands at various concentrations. Also non-specific binding was, determined in the presence of excess unlabeled PGF2α (10^−5 M).
(§6) It also contains a hygromycin resistance gene that is used for eukaryotic selection. The cells employed for stable transfection were human embryonic kidney cells (HEK-293) that were transfected with and express the EBNA-1 protein. These HEK-293-EBNA cells (Invitrogen) were grown in medium containing Geneticin (G418) to maintain expression of the EBNA-1 protein. HEK-293 cells were grown in DMEM with 10% fetal bovine serum (FBS), 250 μg ml G418 (Life Technologies) and 200 μg ml^−1 gentamicin or penicillin/streptomycin.
(§7) For transfection, the cells were grown to 50-60% confluency on 10 cm plates. The plasmid pCEP4 incorporating cDNA inserts for the respective human prostanoid receptor (20 μg) was added to 500 μl of 250 mM CaCl2. HEPES buffered saline ×2 (2×HBS, 280 mM NaCl, 20 mM HEPES acid, 1.5 mM Na2 HPO4, pH 7.05-7.12) was then added dropwise to a total of […], with continuous vortexing at room temperature. After 30 min, 9 ml DMEM were added to the mixture. The DNA/DMEM/calcium phosphate mixture was then added to the cells, which had been previously rinsed with 10 ml PBS. The cells were then incubated for 5 hr at 37° C. in humidified 95% air/5% CO2. The calcium phosphate solution was then removed and the cells were treated with 10% glycerol in DMEM for 2 min. The glycerol solution was then replaced by DMEM with 10% FBS. The cells were incubated overnight and the medium was replaced by DMEM/10% FBS containing 250 μg ml^−1 G418 and penicillin/streptomycin. The following day hygromycin B was added to a final concentration of 200 μg ml^−1. […]

[2] = target: T2, human EP2 receptor (hEP2) (Homo sapiens, UniProt P43116); experiment: Radioligand binding competition vs [3H]PGE2, human recombinant EP2 receptor; details: [3H]PGE2 competition, plasma membranes of HEK-293 stable transfectants, 60 min 25° C.
T2 construct: expressed in transfected cells; plasma membrane fraction
Experimental: as §1, §2, §3, §4, §5, §6, §7

[3] = target: T3, human EP3 receptor (hEP3, D isoform) (Homo sapiens, UniProt P43115); experiment: Radioligand binding competition vs [3H]PGE2, human recombinant EP3 receptor; details: [3H]PGE2 competition, plasma membranes of transfected cells (COS-7 transient; HEK-293 also named), 60 min 25° C.
T3 construct: expressed in transfected cells; host or cells: COS-7 cells, transient transfection with pcDNA3 (lipofectin); plasma membrane fraction
T3 sequence (P43115 1-374 isoform P43115-4): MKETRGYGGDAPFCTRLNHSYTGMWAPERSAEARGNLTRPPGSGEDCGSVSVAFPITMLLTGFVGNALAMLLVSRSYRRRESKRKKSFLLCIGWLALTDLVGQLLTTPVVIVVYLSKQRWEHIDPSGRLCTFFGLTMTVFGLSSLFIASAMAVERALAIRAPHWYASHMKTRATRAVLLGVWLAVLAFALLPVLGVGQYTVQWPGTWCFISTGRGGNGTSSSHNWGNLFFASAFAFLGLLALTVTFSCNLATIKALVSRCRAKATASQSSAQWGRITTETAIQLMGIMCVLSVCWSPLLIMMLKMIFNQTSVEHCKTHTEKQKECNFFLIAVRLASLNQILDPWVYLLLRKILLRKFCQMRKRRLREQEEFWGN
Experimental: as §2, §4
Human Recombinant EP3 and TP Receptors: Transient Transfectants.
Plasmids encoding the human EP3 (D isoform) or TP receptor were prepared by cloning the respective coding sequences into a pcDNA3 vector (Invitrogen). COS-7 cells were transfected with pcDNA3 containing cDNA encoding the EP3 or TP receptor by employing the lipofectin method, according to the manufacturers instructions (Gibco). For radioligand binding studies, cells were harvested two days after transfection.
Radioligand binding studies on plasma membrane fractions prepared from cells were performed as follows. Cells washed with TME buffer were scraped from the bottom of the plates and homogenized for 30 sec using a Brinkman PT 10/35 polytron. TME buffer was added as necessary to achieve a 40 ml volume in the centrifuge tubes. TME is comprised of 50 mM TRIS base, 10 mM MgCl2, 1 mM EDTA; pH 7.4 is achieved by adding 1 N HCl. The cell homogenate was centrifuged at 19,000 rpm for 20-25 min at 4° C. using a Beckman Ti-60 or T ? -70 rotor. The pellet was then resuspended in TME buffer to provide a final protein concentration of 1 mg/ml, as determined by Bio-Rad assay. Radioligand binding assays were performed in a 100 μl or 200 μl volume.
The binding of [^3H] PGE2 (specific activity 165 Ci/mmol) was determined in duplicate and, in at least 3 separate experiments. Incubations were for 60 min at 25° C. and were terminated by the addition of 4 ml of ice-cold 50 mM TRIS-HCl followed by rapid filtration through Whatman GF/B filters and three additional 4 ml washes in a cell harvester (Brandel). Competition studies were performed using a final concentration of 2.5 or 5 nM [H] PGE2 and non-specific binding was determined with 10^−5 M unlabelled PGE2.

T1 sequence (P35408 whole entry): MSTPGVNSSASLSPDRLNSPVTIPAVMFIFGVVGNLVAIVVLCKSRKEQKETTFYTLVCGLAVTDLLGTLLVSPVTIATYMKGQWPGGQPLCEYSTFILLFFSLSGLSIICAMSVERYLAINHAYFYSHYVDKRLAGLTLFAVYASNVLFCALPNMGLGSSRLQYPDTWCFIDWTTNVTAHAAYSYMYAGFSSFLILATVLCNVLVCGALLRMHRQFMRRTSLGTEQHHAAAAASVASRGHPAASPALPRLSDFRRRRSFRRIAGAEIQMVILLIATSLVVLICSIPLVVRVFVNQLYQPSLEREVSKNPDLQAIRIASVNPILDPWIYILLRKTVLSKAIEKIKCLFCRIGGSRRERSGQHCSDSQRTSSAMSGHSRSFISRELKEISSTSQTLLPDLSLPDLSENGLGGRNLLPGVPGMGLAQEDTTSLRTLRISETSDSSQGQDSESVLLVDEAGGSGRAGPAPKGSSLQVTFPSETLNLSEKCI
T2 sequence (P43116 whole entry): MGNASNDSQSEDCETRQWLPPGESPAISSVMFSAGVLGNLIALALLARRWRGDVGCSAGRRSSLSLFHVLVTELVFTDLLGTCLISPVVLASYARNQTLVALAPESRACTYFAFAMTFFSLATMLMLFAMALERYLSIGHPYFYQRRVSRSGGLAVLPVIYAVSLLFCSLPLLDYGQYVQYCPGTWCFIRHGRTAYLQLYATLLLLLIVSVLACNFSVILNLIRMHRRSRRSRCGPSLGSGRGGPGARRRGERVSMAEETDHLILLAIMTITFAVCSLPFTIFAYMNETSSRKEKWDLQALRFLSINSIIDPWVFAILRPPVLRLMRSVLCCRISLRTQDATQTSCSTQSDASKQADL

IC50 [1] [µM] | IC50 [2] [µM] | IC50 [3] [µM] | Structure (SMILES)
0.013 | ≥ 10 | > 10 | O=C(O)CSCCCS[C@H]1C(=O)C[C@@H](O)[C@@H]1/C=C/[C@@H](O)CCc1cc2ccccc2s1 [Example 14L, {3-[(1R,2S,3R)-3-Hydroxy-2-((S)-(E)-3-hydroxy-5-(benzothienyl)pent-1-enyl)-5-oxocyclopentylsulfanyl]propylsulfanyl}acetic acid]
0.032 | > 10 | > 10 | C[C@@](O)(/C=C/[C@H]1[C@H](O)CC(=O)[C@@H]1SCCCSCC(=O)O)CCc1cc2ccccc2s1 [Example 34H, {3-[(1R,2S,3R)-3-Hydroxy-2-((S)-(E)-3-(hydroxy)-3-(methyl)-5-(benzothienyl)pent-1-enyl)-5-oxocyclopentylsulfanyl]propylsulfanyl}acetic acid]
0.005 | 2.2 | > 10 | O=C(O)CSCCCS[C@H]1C(=O)C[C@@H](O)[C@@H]1/C=C/C(O)Cc1csc2ccccc12 (single isomer, unassigned) [Example 25L]
0.027 | > 10 | > 10 | O=C(O)CSCCCS[C@H]1C(=O)C[C@@H](O)[C@@H]1/C=C/[C@@H](O)CCc1cc2ccccc2s1 [Example 14H, {3-[(1R,2S,3R)-3-Hydroxy-2-((S)-(E)-3-hydroxy-5-(benzothienyl)pent-1-enyl)-5-oxocyclopentylsulfanyl]propylsulfanyl}acetic acid]
0.0195 | > 10 | 8.3 | O=C(O)CSCCCS[C@H]1C(=O)C[C@@H](O)[C@@H]1/C=C/C(O)CCc1ccc2ccccc2c1 (single isomer, unassigned) [Example 10L]
0.093 | > 10 | 7.2 | COC(=O)CSCCCS[C@H]1C(=O)C[C@@H](O)[C@@H]1/C=C/[C@@H](O)CCc1cc2ccccc2s1 [Example 13L, {3-[(1R,2S,3R)-3-Hydroxy-2-((S)-(E)-3-hydroxy-5-(benzothienyl)pent-1-enyl)-5-oxocyclopentylsulfanyl]propylsulfanyl}acetic acid methyl ester]
0.069 | > 10 | – | O=C(O)CSCCCS[C@H]1C(=O)C[C@@H](O)[C@@H]1/C=C/C(O)Cc1csc2ccccc12 (single isomer, unassigned) [Example 25H]
0.0062 | > 10 | > 10 | O=C(O)CSCCCS[C@H]1C(=O)C[C@@H](O)[C@@H]1/C=C/C(O)Cc1ccc2ccccc2c1 (single isomer, unassigned) [Example 22L]
0.45 | > 10 | > 10 | O=C(O)CSCCCS[C@H]1C(=O)C[C@@H](O)[C@@H]1/C=C/C(O)CCc1ccc2ccccc2c1 (single isomer, unassigned) [Example 10H]
3.1 | – | > 10 | COC(=O)CSCCCS[C@H]1C(=O)C[C@@H](O)[C@@H]1/C=C/C(C)(O)Cc1ccc2ccccc2c1 (stereo partly drawn) [Example 30H, {3-[(1R,2S,3R)-3-Hydroxy-2-((E)-3-hydroxy-3-methyl-4-naphthalen-2-yl-but-1-enyl)-5-oxocyclopentylsulfanyl]propylsulfanyl}acetic acid methyl ester]
0.03 | 9.3 | > 10 | COC(=O)CSCCCS[C@H]1C(=O)C[C@@H](O)[C@@H]1/C=C/C(O)Cc1csc2ccccc12 (single isomer, unassigned) [Example 24L]
